Data from the METLIN SMRT retention time set (Domingo-Almenara et al. 2019).

Experiment: gradient 5% acetonitrile 3 min, to 50% in 2 min, to 85% in 15 min, held 3 min, 100 µL/min
Details: column: Zorbax Extend-C18 2.1 x 50 mm; eluents: water / acetonitrile, 0.1% formic acid
Summary of the method: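 Standards, all pure, were combined into mixtures of ~100 molecules and run at 100 μL/min on a Zorbax Extend-C18 column (2.1 × 50 mm, 1.8 μm) with water and acetonitrile, each containing 0.1% formic acid. A coupled quadrupole time-of-flight mass spectrometer operated in positive and negative ionization mode. Retention time values come from computationally picked adduct peaks, each inspected manually.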

Row | Compound | RP-LC retention time [s]
1 | O=C(NCc1ccc(Cl)cc1)C1CC(=O)N(c2n[nH]c3cccc(F)c23)C1 (centres undefined) | 833
2 | Cc1[nH]c2ccccc2c1CCNCc1ccc(/C=C/C(=O)NO)cc1 | 659
3 | CCN1CCN(C(=O)Nc2ccc(Br)cc2F)c2cccnc21 | 659
4 | O=C(CCc1nnc2c3cc(-c4ccccc4)nn3ccn12)N1CCN(C2CCCCC2)CC1 | 628
5 | O=C(C1=CN(c2ccc(Cl)cc2)c2ccccc2S1(=O)=O)N1CCCC1 | 827
6 | CNC(=O)c1sc(Nc2ccc(Cl)cn2)nc1C | 687
7 | Cc1cc(=O)n(CC(=O)NCc2cccs2)c(N(C)Cc2ccccc2)n1 | 698
8 | CCN1CCc2nc(-c3ccc(F)cc3)n(CC(=O)N3CCCc4ccccc43)c(=O)c2C1 | 625
9 | CN(CC1CCOC1)C(=O)c1ccccc1Br (centres undefined) | 697
10 | COCc1noc([C@@H]2CC(F)(F)CN2C(=O)C2CCC2)n1 | 746
11 | O=C(Cc1cccc(F)c1)NC1CCN(c2ccccc2)C1=O (centres undefined) | 770
12 | O=C(NCc1cccc(Cl)c1)c1ccc2c(c1)ncn2CCN1CCCC1 | 601
13 | CC(=O)c1ccc(NC(=O)CC2COc3ccccc3NC2=O)cc1 (centres undefined) | 677
14 | Cc1cccc(N2C(=O)CN(Cc3ccccc3F)[C@H]3CS(=O)(=O)C[C@H]32)c1 | 803
15 | CCCOc1cn(-c2ccc(F)cc2)nc1C(=O)N1CCC(C(=O)OCC)CC1 | 930
16 | CCOC(=O)c1c(C)[nH]c(C(=O)N2CCC(CC(=O)N3CCN(c4ccccc4)CC3)CC2)c1C | 836
17 | CCOC(=O)c1csc(NC(=O)c2ccccc2Br)n1 | 780
18 | Cc1ccccc1Sc1nccnc1SCC(=O)N1CCN(c2ccccn2)CC1 | 715
19 | CS(=O)(=O)c1ccc(SCC(=O)N2CCOCC2)c([N+](=O)[O-])c1 | 636
20 | CC(C)n1c(=O)c(NCc2ccccc2Cl)nc2ccncc21 | 596

Row | Compound | RP-LC retention time [s]
21 | Cc1cccc(C)c1NC(=O)NCc1ccco1 | 790
22 | Cc1noc(C2CN(C(=O)CCC(C)C)CC23CCOCC3)n1 (centres undefined) | 678
23 | CCCC(=O)N1CCc2c([nH]c3ccccc23)C1c1ccc(Cl)cc1 (centres undefined) | 578
24 | Cc1ccc2nc(-c3ccccc3F)c(Nc3c(C)cccc3C)n2c1 | 793
25 | CC1CCCN(CCCNC(=O)CCC(=O)N2CCc3c(c(C(=O)N4CCCC4)nn3C)C2)C1 (centres undefined) | 579
26 | CC(C)c1nc(-n2cccc2)sc1C(=O)NCCc1ccccc1 | 1190
27 | O=C(NC1(c2nc(-c3ccncc3)no2)CCCCC1)c1ccc(C(F)(F)F)cc1 | 1030
28 | COc1cccc(C(O)CN2CCN(c3ccccc3F)CC2)c1 (centres undefined) | 654
29 | CCOC(=O)C(NC(=O)C1CCCN1C(=O)OCc1ccccc1)C(=O)OCC (centres undefined) | 855
30 | CC1CCN(C(=O)c2cn(CC3CCCO3)cc3c(=O)n(-c4ccccc4)nc2-3)CC1 (centres undefined) | 766
31 | CCN1C(=O)c2cc(C(=O)N3CCN(c4ncccn4)CC3)nn2CC1(C)C(=O)NC1CCCC1 (centres undefined) | 691
32 | CCC(=O)N1c2ccc(S(=O)(=O)N3CCCCC3)cc2CC1C(=O)NCCCc1ccccc1 (centres undefined) | 977
33 | CC1=Nc2ccccc2N=C(NC(=O)Nc2cccc(Cl)c2)C1c1ccc(Cl)cc1 (centres undefined) | 1170
34 | CN(Cc1ccccc1)C(=O)C1CCCN(c2ncnc3c2nc2n3CCCCC2)C1 (centres undefined) | 758
35 | O=C(CCC[C@@H]1[C@H]2CCCN3CCC[C@@H](CN1S(=O)(=O)c1cccs1)[C@@H]23)N1CCOCC1 | 588
36 | COC(=O)c1cccc(NC(=O)CSc2nccc(N3CCN(c4ccc(OC)cc4)CC3)n2)c1 | 743
37 | Cn1ncc2c(N3CCSCC3)nc(C(=O)NCc3cccs3)nc21 | 778
38 | CCNC(=O)c1nc(C(=O)NCc2cc(F)cc(F)c2)cs1 | 781
39 | CCCSCCCNC(=O)Cn1nc(-n2cccc2)c2c(C)cc(C)nc21 | 1050
40 | CN1CCN(CC(=O)N2CCNC(=O)C2CC(=O)Nc2cccc(C(F)(F)F)c2)CC1 (centres undefined) | 602

Further lines, results first:

Row | RP-LC retention time [s] | Compound
41 | 950 | Cc1ccc(NC(=O)N2CCC(C(C)C(=O)Nc3ccc(C)cc3Cl)CC2)cc1 (centres undefined)
42 | 709 | CC1=C(c2ccccc2)S(=O)(=O)N=C1N1CCCN(C(=O)Nc2cccc(C)c2)CC1
43 | 649 | O=C(O)c1ccc(N2CCN(c3ccccn3)CC2)c(NS(=O)(=O)c2ccc(F)c(F)c2)c1
44 | 910 | Cc1ccc(C)c(-n2ccn(Cc3nc(-c4ccc(F)cc4)no3)c(=O)c2=O)c1
45 | 915 | O=C(CN1C(=O)CCCc2cc(S(=O)(=O)N3CCCC3)ccc21)NC1CCCCCCC1
46 | 701 | O=C(Nc1cccc(C(F)(F)F)c1)N1CCC(n2cnnc2C2CC2)C1 (centres undefined)
47 | 785 | CC(=O)Nc1ccc(C2(C(=O)NCc3cccc(Cl)c3)CCC2)cc1
48 | 1290 | COc1ccc(C)cc1NC(=O)c1nc(C2CCC2)oc1C
49 | 590 | CCc1nc2cccnc2n1CCN1CCN(C(=O)Nc2ccc3c(c2)OCCO3)CC1
50 | 759 | CCCCc1ccc(NC(=O)Cn2cnc3nc(N4CCCC(C(=O)NC)C4)sc3c2=O)cc1 (centres undefined)
51 | 619 | CCCN(C(=O)Nc1cccc(C)c1C)c1nc(-c2ccc(C3CCCCC3)cc2)cs1
52 | 959 | Cn1nc(-c2nc(C3CC3)no2)c2c1CCN(C(=O)Nc1ccc(C(F)(F)F)cc1)C2
53 | 1030 | CCc1nc(-c2csc(S(=O)(=O)N3CCCC(C(=O)Nc4ccccc4)C3)c2)no1 (centres undefined)
54 | 1080 | Cc1nc2nc(-c3ccc(C(C)(C)C)cc3)nn2c(C)c1CC(=O)N1CCCCC1C (centres undefined)
55 | 1090 | CCc1ccccc1S(=O)(=O)N1CC=C(c2cn(C)c3ncccc23)CC1
56 | 835 | Cc1ccc(NC(=O)N2CCC(n3cnc4c(C)cccc4c3=O)CC2)c(C)c1
57 | 700 | CCN1CCn2cc(S(=O)(=O)Nc3cccc(OC)c3)cc2C1=O
58 | 794 | CC1CCN(C(=O)CCNc2c(-c3ccc(F)cc3)nc3cnccn23)CC1
59 | 862 | O=C(c1nnc(-c2ccc(S(=O)(=O)N3CCOCC3)cc2)o1)N1CCCCCC1
60 | 649 | CNC(=O)C1CCCN(c2nc3ncn(CC(=O)Nc4ccccc4OC)c(=O)c3s2)C1 (centres undefined)
61 | 877 | CN(C)S(=O)(=O)c1ccc2c(c1)N(CC(=O)Nc1ccc3c(c1)OCO3)C(=O)C1CCCCN21 (centres undefined)
62 | 675 | Cc1cc(N2CCN(C)CC2)nc2ccc(NC(=O)C3CCC(C(C)(C)C)CC3)cc12 (centres undefined)
63 | 1140 | COc1cc(OC)c(NC(=O)c2ncoc2-c2ccc(OC)c(OC)c2)cc1Cl
64 | 689 | CCOC(=O)N1CCC(NC(=O)CCc2cc3ccc(C)cc3[nH]c2=O)CC1
65 | 823 | CCc1onc(C)c1C1CCCN1C(=O)Cc1ccccc1F (centres undefined)

Row | RP-LC retention time [s] | Compound
66 | 899 | CNC(=O)c1cccc(NC(=O)N2CCC(Oc3ccccc3Cl)CC2)c1
67 | 610 | CCN(CCN(C)C)c1ccc(C(=O)O)cc1NS(=O)(=O)c1ccccc1
68 | 656 | CS(=O)(=O)Nc1cccc(NC(=O)c2coc(NC(=O)c3ccccc3)n2)c1
69 | 689 | Cc1cccc(S(=O)(=O)Nc2ccc3c(c2)CCC(=O)N3)c1
70 | 1020 | O=C(Nc1ccc(N2CCN(C3CCCCC3)C2=O)nc1)c1cc(F)cc(F)c1
71 | 695 | CCOC(=O)COc1cc(O)cc2oc(-c3ccccc3)cc(=O)c12
72 | 646 | CCc1cccc(C)c1NC(=O)Cn1cnc2nc(N3CCC(C(=O)NC)CC3)sc2c1=O
73 | 837 | CCOC(=O)c1ccc(OCCC2CCN(c3ccc(C)nn3)CC2)cc1
74 | 695 | CCc1noc(NC(C)=O)c1-c1ccc(OC)c(S(=O)(=O)NC(C)C)c1
75 | 888 | O=S(=O)(c1cc(-c2nnc(-c3ccccc3)o2)ccc1F)N1CCOCC1
76 | 807 | O=C(CCCSc1ccc(F)cc1)Nc1nnc(Cc2ccc3c(c2)OCO3)o1
77 | 996 | Cc1cc(C)cc(NS(=O)(=O)c2ccc(-c3nnc(C4CCC4)o3)o2)c1
78 | 810 | O=C(CSc1ccc(F)cc1)N1CCCC(c2nnc(-c3ccc4c(c3)OCO4)o2)C1 (centres undefined)
79 | 747 | O=C(Cn1nc2c(cc1=O)CCCC2)Nc1ccc(Br)cc1
80 | 1050 | CCSc1nnc(-c2nn(C)c3c2CN(S(=O)(=O)c2cccc(Cl)c2C)CC3)n1CC
81 | 715 | Cc1cccc(NC(=O)CSc2nnc(C)s2)c1
82 | 953 | O=C(CN1C(=O)CCCc2cc(S(=O)(=O)N3CCCCCC3)ccc21)Nc1ccccc1F
83 | 640 | CCc1noc(-c2ccnc(-n3cnc(C(=O)NC4CCCCCC4)c3)c2)n1
84 | 867 | COCCCNC(=O)c1ccc(-c2nc3cccnc3n(C3CCCC3)c2=O)cc1
85 | 640 | COc1ccc(NC(=O)C2(C)CCCCC(=O)N2)cc1 (centres undefined)
86 | 780 | CCOC(=O)c1[nH]c(C)c(CCC(=O)NCc2ccc3c(c2)OCO3)c1C
87 | 675 | CC(C)(C)NC(=O)CN1CCC(c2nc(-c3ccc(F)cc3)no2)CC1
88 | 994 | COc1ccc(/C=C2\CCc3ccccc3C2=O)cc1OC
89 | 583 | CCN1CCC2(CC1)OC(=O)C(C)=C2C(=O)NCCCN1CCC(Cc2ccccc2)CC1
